The text below walks through data of the OPERA property sets (Mansouri et al. 2018).

For orientation: boiling point means the temperature at which the vapour pressure of the liquid equals the pressure above it. By melting point is commonly meant the temperature, or range, at which the solid turns liquid.

Settings in the first series: not given
In the case of `CCCCCC(=O)OCCC(C)C`, the boiling point was 226 °C.

`CC(=O)Nc1ccc(C)c(NS(=O)(=O)C(F)(F)F)c1` returned a melting point of 176 °C.

As for `CC=CCCCCCCCCO`, the boiling point is 248 °C and the melting point is 6 °C.

As for `C=CC(=O)NCOCCCC`, the ready biodegradability entry was “readily biodegradable”.

For the molecule `OC(c1ccc(Cl)cc1)(c1ccc(Cl)cc1)C(Cl)(Cl)Cl`, the log10 Koc (L/kg) turned out to be 3.7, the log10 vapour pressure (mmHg) was -6.4, the melting point is 77.5 °C and the ready biodegradability result is “not readily biodegradable”.

`CC[Si](CC)(CC)O[Si](CC)(CC)CC` had a boiling point of 233 °C.

As for `COc1cccc(OC)c1`, the boiling point came out at 218 °C, the melting point is -52 °C and the ready biodegradability entry is recorded as “readily biodegradable”.

On to `N[C@@H](Cc1cc(I)c(Oc2cc(I)c(O)c(I)c2)c(I)c1)C(=O)O`, for which the melting point was determined as 236 °C.

As for `O=NN(CCO)CCO`, the ready biodegradability entry is given as “readily biodegradable”.

For the molecule `O=[N+]([O-])c1cc([N+](=O)[O-])c2ccccc2c1`, the melting point was found to be 148 °C.

`C=CCC1(C(C)C)C(=O)NC(=O)NC1=O` registered a melting point of 141 °C.

The molecule `NNc1c(F)c(F)cc(F)c1F` yielded a melting point of 92 °C.

Take `CCCCCCCCCCCCCC(=O)OCC`: the boiling point was found to be 295 °C and the melting point is 12.3 °C.

With `OCCCCCCCCCCl`, the melting point came to 28 °C.

The molecule `NC(=O)OCC(O)c1ccccc1` (centres undefined) gave a melting point of 112 °C.

`O=[N+]([O-])CCCl` returned a boiling point of 174 °C.

Consider `CC(=C(CCO)SSC(CCO)=C(C)N(C=O)Cc1cnc(C)nc1N)N(C=O)Cc1cnc(C)nc1N`, for which the melting point was found to be 177 °C.

On to `CN1CSCSC1`, for which the boiling point stood at 185 °C and the melting point is 65 °C.

`O=C1c2ccccc2Cc2ccccc21` gave a melting point of 155 °C.

The molecule `COC(C)(C)OC` showed a boiling point of 83 °C, a log10 vapour pressure (mmHg) of 2.01 and a melting point of -47 °C.

On to `Nc1cc(Cl)ccc1[N+](=O)[O-]`, for which the melting point amounted to 128 °C.

In the case of `O=C(O)CCCCC[N+](=O)[O-]`, the ready biodegradability result is listed as “readily biodegradable”.

Turning to `CCOP(=O)([O-])C(N)=O.[NH4+]`, the melting point was found to be 175 °C.

In the case of `CC(=O)O[C@H]1C[C@@H]2CC[C@@H]3[C@H](CC[C@@]4(C)[C@H]3C[C@H]([N+]3(C)CCCCC3)[C@@H]4OC(C)=O)[C@@]2(C)C[C@@H]1[N+]1(C)CCCCC1.[Br-].[Br-]`, the melting point was determined as 215 °C.

For `COC(=O)CC[N+](=O)[O-]`, the ready biodegradability result is “readily biodegradable”.

In turn, `CC(=O)CC(=O)OC(C)C` came in with a boiling point of 186 °C and a melting point of -27.3 °C.

For `Cc1ccc2c(C)cccc2c1`, the boiling point is 264 °C, the log10 vapour pressure (mmHg) is -1.84 and the melting point is -16.9 °C.

On to `CCO[Si](CC)(OCC)OCC`, for which the boiling point stood at 158 °C.

As for `CCC(C)CC(C)C` (centres undefined), the boiling point amounted to 110 °C, the log10 biodegradation half-life (days) stood at 0.845 and the log10 vapour pressure (mmHg) worked out at 1.48.

For the molecule `Oc1cccc(O)c1O`, the boiling point is 309 °C, the log10 vapour pressure (mmHg) was -3.32, the melting point came out at 133 °C and the ready biodegradability result is “readily biodegradable”.

On to `Nc1ccc2ccc3cccc4ccc1c2c34`, for which the melting point is 116 °C.

With `Cc1cccc(C=O)c1`, the boiling point is 199 °C.

As to `CN1C(=O)C=CC1=O`, the melting point was 95 °C.

`COC(=O)c1cc(Cl)ccc1O` showed a melting point of 50 °C.

Molecule `O[C@@H]1CO[C@H]2[C@@H]1OC[C@@H]2O` gave a melting point of 75.2 °C.

Molecule `CCCCCCCCOC(=O)CCCCCCC` showed a boiling point of 307 °C and a melting point of -18.1 °C.

In turn, `FC1=C(F)C(F)(F)C(F)(F)C(F)(F)C1(F)F` returned a boiling point of 52 °C.

Molecule `CC(C)CC(O)CC(C)C` returned a boiling point of 174 °C and a log10 vapour pressure (mmHg) of -0.519.

As for `CC(=O)c1cccnc1`, the boiling point came to 220 °C, the log10 Henry constant (atm·m³/mol) is -7.67 and the melting point was determined as 13.5 °C.

`Nc1ccc(F)c(Cl)c1` had a boiling point of 228 °C and a melting point of 45.5 °C.

`CC1=C(C)CCCC1` displayed a boiling point of 138 °C and a melting point of -84.1 °C.

The molecule `CCS(=O)(=O)O` displayed a melting point of -17 °C.

For `Cn1c(=O)c2[nH]cnc2n(C)c1=O`, the melting point amounted to 273 °C.

In the case of `CCCCCCCC(=O)OCCCCC`, the boiling point came to 260 °C and the melting point is -34.8 °C.

Turning to `O=[N+]([O-])c1ccc(Cl)c([N+](=O)[O-])c1`, the boiling point was determined as 315 °C, the log10 vapour pressure (mmHg) is -4.07, the melting point turned out to be 53 °C and the ready biodegradability entry is listed as “not readily biodegradable”.

Turning to `Nc1ccccc1Cl`, the boiling point turned out to be 209 °C, the log10 vapour pressure (mmHg) was -0.69, the melting point was -14 °C and the ready biodegradability entry is listed as “not readily biodegradable”.

`O=C[C@H](O)[C@@H](O)[C@@H](O)[C@H](O)C(=O)O`: the melting point came to 166 °C.

Regarding `c1ccc2sc(SSN3CCOCC3)nc2c1`, the melting point was determined as 135 °C.

On to `Fc1ccc(N=C=S)cc1`, for which the boiling point is 228 °C and the melting point was found to be 27 °C.

For the molecule `CCOCC(=O)OCC`, the boiling point came to 158 °C.

For `C=C(C)c1ccc(C)cc1`, the boiling point was determined as 185 °C and the melting point was -20 °C.

`CC(Cc1ccccc1)NC(C#N)c1ccccc1` (centres undefined) showed a melting point of 86 °C.

As for `FC(OC(F)(F)C(F)(F)C(F)(F)F)C(F)(F)F` (centres undefined), the boiling point worked out at 41 °C.

As to `C[N+]1(CCC(O)(c2ccccc2)c2cccs2)CCOCC1.[I-]` (centres undefined), the melting point is 190 °C.

As to `C[C@H]1C[C@H]2[C@@H]3CCC4=CC(=O)C=C[C@]4(C)[C@@]3(F)[C@@H](O)C[C@]2(C)[C@@]1(O)C(=O)CCl`, the melting point came out at 196 °C.

`O=[N+]([O-])c1cc(Cl)c(Cl)cc1Cl`: the boiling point came to 288 °C and the melting point worked out at 57.5 °C.

Consider `CC=CC=C(C)C`, for which the boiling point is 112 °C and the melting point is -74.2 °C.

Still in this series, the particulars now being: fish.
`ClC1=C(Cl)[C@]2(Cl)[C@@H]3[C@@H]4C[C@@H]([C@H]5O[C@@H]45)[C@@H]3[C@@]1(Cl)C2(Cl)Cl` (single isomer, unassigned) registered a log10 BCF of 3.91 and a log10 biotransformation half-life (days) of 1.65.

As to `Nc1cccc2ccccc12`, the log10 BCF turned out to be 1.4 and the log10 biotransformation half-life (days) is -0.24.

In turn, `N#Cc1c(Cl)c(Cl)c(Cl)c(C#N)c1Cl` returned a log10 BCF of 1.8 and a log10 biotransformation half-life (days) of 0.27.

As for `OC(c1ccc(Cl)cc1)(c1ccc(Cl)cc1)C(Cl)(Cl)Cl`, the log10 BCF stood at 3.79 and the log10 biotransformation half-life (days) came out at 1.99.

Molecule `Nc1ccccc1Cl` registered a log10 BCF of 0.95 and a log10 biotransformation half-life (days) of -0.61.

Regarding `O=[N+]([O-])c1cc(Cl)c(Cl)cc1Cl`, the log10 BCF was found to be 1.84 and the log10 biotransformation half-life (days) was -0.64.
